Results: PMC12630686, “A degron-mimicking molecular glue drives CRBN homo-dimerization and degradation” (Nature Communications, 2025)

Assays:
Cereblon (CRBN) [1] = molecular target: T1, Cereblon (CRBN) (Homo sapiens, UniProt Q96SW2); experiment: TR-FRET displacement of Cy5-thalidomide from CRBN-DDB1; type: binding; set-up: 6xHis-CRBN-DDB1 complex; with DDB1
Target sequence in this assay (Q96SW2 40-442): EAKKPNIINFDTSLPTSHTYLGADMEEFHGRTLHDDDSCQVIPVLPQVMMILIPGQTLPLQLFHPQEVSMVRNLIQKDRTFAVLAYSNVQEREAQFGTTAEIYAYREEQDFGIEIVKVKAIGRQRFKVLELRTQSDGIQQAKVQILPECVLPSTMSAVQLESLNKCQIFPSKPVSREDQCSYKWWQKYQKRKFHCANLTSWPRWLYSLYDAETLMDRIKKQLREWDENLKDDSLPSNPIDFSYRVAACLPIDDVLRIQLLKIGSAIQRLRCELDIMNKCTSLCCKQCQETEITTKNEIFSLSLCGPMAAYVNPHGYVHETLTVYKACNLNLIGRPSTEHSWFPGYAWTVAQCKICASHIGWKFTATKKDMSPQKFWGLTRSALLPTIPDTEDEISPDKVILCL
Target sequence in this assay (Q16531 whole entry partner): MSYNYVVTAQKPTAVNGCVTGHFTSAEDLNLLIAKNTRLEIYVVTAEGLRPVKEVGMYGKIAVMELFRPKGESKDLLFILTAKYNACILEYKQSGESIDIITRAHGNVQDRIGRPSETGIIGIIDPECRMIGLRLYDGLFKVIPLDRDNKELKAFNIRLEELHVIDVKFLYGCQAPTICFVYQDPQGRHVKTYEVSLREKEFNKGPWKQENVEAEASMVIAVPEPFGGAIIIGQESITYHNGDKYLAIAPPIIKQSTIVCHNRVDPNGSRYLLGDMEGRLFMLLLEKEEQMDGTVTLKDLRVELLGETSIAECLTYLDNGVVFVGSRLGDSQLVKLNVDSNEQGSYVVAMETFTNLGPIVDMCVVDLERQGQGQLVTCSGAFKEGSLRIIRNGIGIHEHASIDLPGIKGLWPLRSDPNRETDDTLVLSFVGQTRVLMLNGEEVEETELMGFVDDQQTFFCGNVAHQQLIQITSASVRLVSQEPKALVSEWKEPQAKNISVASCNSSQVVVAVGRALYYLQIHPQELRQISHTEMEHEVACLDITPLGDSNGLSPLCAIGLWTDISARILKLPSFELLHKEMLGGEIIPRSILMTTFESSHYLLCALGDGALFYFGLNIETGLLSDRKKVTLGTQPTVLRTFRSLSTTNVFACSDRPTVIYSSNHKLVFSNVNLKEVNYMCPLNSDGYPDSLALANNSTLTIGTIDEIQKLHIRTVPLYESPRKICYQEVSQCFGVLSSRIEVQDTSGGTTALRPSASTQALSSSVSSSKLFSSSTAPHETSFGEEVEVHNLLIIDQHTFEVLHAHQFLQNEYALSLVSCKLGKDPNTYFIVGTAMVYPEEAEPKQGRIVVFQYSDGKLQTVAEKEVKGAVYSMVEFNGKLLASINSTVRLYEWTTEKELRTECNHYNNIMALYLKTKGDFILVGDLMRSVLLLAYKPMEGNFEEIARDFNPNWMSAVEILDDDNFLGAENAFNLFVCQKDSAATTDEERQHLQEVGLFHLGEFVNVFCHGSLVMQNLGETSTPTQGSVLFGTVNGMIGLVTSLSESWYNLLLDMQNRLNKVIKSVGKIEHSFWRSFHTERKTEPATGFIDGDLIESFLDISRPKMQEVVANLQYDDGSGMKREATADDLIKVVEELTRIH

Cereblon (CRBN) [2] = molecular target: T1, Cereblon (CRBN); experiment: cryo-EM structure ([…] Å and […] Å); TR-FRET thalidomide displacement (IC50); FIDA and SEC-MALS; type: binding; set-up: 6xHis-CRBN-DDB1 complex (per checker note), TR-FRET thalidomide displacement; not the cryo-EM CRBN 41-442/DDB1ΔBPB homodimer
Target sequence in this assay (Q96SW2 whole entry): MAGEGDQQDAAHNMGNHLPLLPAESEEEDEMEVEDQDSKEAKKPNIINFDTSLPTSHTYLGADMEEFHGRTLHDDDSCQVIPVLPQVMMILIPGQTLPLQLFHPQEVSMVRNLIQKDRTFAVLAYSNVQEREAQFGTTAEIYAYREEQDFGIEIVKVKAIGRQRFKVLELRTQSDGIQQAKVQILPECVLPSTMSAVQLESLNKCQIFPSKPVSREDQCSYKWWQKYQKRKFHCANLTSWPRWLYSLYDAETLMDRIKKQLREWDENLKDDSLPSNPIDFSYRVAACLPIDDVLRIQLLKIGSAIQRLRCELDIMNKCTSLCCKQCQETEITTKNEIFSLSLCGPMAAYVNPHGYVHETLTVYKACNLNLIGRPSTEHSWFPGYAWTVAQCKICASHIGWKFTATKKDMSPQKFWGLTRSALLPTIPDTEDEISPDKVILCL
Target sequence in this assay (Q16531 2-1140 partner): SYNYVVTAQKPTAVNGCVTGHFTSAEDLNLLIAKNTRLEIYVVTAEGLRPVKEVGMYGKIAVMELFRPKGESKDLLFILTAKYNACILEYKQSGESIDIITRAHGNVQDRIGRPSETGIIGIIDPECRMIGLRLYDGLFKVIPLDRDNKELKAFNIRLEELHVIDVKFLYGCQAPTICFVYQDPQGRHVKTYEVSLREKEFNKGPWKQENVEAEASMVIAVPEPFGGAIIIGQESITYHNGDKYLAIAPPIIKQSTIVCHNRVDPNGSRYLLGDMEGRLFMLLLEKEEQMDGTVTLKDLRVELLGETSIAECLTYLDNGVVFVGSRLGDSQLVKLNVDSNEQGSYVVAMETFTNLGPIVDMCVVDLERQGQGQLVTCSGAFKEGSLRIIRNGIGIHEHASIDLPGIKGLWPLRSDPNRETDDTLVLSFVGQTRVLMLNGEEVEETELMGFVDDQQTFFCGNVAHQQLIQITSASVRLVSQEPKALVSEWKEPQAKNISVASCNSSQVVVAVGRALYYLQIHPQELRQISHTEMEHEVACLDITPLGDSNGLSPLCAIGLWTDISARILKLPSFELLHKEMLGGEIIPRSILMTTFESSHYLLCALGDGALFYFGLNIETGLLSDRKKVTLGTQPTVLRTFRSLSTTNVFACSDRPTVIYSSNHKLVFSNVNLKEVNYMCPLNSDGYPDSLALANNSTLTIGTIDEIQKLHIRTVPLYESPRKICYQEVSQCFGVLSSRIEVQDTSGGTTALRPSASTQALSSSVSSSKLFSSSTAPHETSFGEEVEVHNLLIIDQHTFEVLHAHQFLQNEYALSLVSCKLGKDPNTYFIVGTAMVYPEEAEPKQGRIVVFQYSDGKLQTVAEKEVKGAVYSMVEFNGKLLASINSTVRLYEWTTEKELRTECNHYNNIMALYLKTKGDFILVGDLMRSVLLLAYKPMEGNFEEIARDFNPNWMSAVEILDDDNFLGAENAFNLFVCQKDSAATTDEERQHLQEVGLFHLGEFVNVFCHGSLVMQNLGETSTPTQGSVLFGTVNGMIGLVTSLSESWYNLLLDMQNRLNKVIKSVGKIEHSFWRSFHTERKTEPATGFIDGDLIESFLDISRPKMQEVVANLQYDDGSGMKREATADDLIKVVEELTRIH

| IC50 (Cereblon (CRBN) [1]) | IC50 (Cereblon (CRBN) [2]) | Structure (SMILES) |
| --- | --- | --- |
| 60 nM | – | O=C1CCC(N2Cc3ccc(N4CCC5(CCN(Cc6ccccc6)CC5)C4)cc3C2=O)C(=O)N1 (centres unmarked) [MRT-30568] |
| – | 14 nM | O=C1CCC(N2Cc3ccc(N4CCC5(CCN(C(=O)c6ccccc6)CC5)C4)cc3C2=O)C(=O)N1 (centres unmarked) [MRT-31619] |
